Holding throughout (assay type): in vivo
Data set [1] concerns Chenopodium album. The experiment in a line: Test Example 1 upland field foliage treatment. Particulars: Table 4, upland field foliage treatment, index 0-5. The method, boiled down: (§1)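 Seeds sown in upland soil in pots and covered with about 1 cm soil; on day 14 after sowing, diluted wettable powder applied uniformly to leaves at 1 kg active ingredient per hectare. Weed control or crop phytotoxicity scored visually 21 days after application on a 0–5 scale (5 = ≥90%, 0 = <10%).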

The subject of data set [2] is Digitaria adscendens. The experiment in a line: Test Example 1 upland field foliage treatment. To be noted: Table 4, upland field foliage treatment, index 0-5. In outline: as §1
The subject of data set [3] is Setaria viridis. The experiment in a line: Test Example 1 upland field foliage treatment. Particulars: Table 4, upland field foliage treatment, index 0-5. In outline: as §1
The subject of data set [4] is Stellaria media. The data set is described as follows: Test Example 1 upland field foliage treatment. To be noted: Table 4, upland field foliage treatment, index 0-5. The method, boiled down: as §1
For data set [5], the system named is soybean (Glycine max). The experiment in a line: Test Example 1 upland field foliage treatment, crop phytotoxicity. Particulars: Table 4, upland field foliage treatment, index 0-5. In outline:
as §1

In data set [6] the test system is wheat (Triticum aestivum). The description is as above. Particulars: Table 4, upland field foliage treatment, index 0-5. In outline:
as §1

Data set [7] deals with Chenopodium album. The data set is described as follows: Test Example 2 upland soil treatment. To be noted: Table 5, upland soil treatment, index 0-5. In outline:
(§2)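 Score 0–5 read at day 21 (5 = ≥90% effect or phytotoxicity, 0 = <10%). Wettable powder diluted in water to 1 kg a.i./ha, applied uniformly to upland soil one day after sowing; seeds covered with ~1 cm soil.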

Data set [8] relates to Digitaria adscendens. The experiment in a line: Test Example 2 upland soil treatment. To be noted: Table 5, upland soil treatment, index 0-5. The method, boiled down: as §2
Data set [9] concerns Setaria viridis. The data set is described as follows: Test Example 2 upland soil treatment. To be noted: Table 5, upland soil treatment, index 0-5. In outline: as §2
The test system of data set [10] is Stellaria media. The data set is described as follows: Test Example 2 upland soil treatment. Particulars: Table 5, upland soil treatment, index 0-5. In outline: as §2
For data set [11], the system named is soybean (Glycine max). The data set is described as follows: Test Example 2 upland soil treatment, crop phytotoxicity. Particulars: Table 5, upland soil treatment, index 0-5. The method, boiled down: as §2
The test system of data set [12] is wheat (Triticum aestivum). The description is as above. Particulars: Table 5, upland soil treatment, index 0-5. The method, boiled down:
as §2

Another data set relates to Ammannia multiflora. The experiment in a line: Test Example 3 paddy field treatment. To be noted: Table 6, paddy field treatment, active ingredient 1 kg per hectare, 21st day after dropping, index 0-5. The method, boiled down:
(§3)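 Weed seeds sown in puddled paddy soil under 4 cm water, with two-leaf Koshihikari rice transplanted; 10 days later a wettable powder was applied to the water surface at 1 kg active ingredient/ha. Scored 21 days after application on a 0–5 scale (0 = <10%, 5 = ≥90% herbicidal effect or phytotoxicity).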

The test system of another data set is Echinochloa crusgalli. The experiment in a line: Test Example 3 paddy field treatment. To be noted: Table 6, paddy field treatment, active ingredient 1 kg per hectare, 21st day after dropping, index 0-5. The method, boiled down: as §3
A further data set deals with Monochoria vaginalis. The experiment in a line: Test Example 3 paddy field treatment. Particulars: Table 6, paddy field treatment, active ingredient 1 kg per hectare, 21st day after dropping, index 0-5. The method, boiled down: as §3
The subject of a further data set is Scirpus juncoides. The data set is described as follows: Test Example 3 paddy field treatment. To be noted: Table 6, paddy field treatment, active ingredient 1 kg per hectare, 21st day after dropping, index 0-5. In outline:
as §3

The test system of another data set is Rice (Oryza sativa). The data set is described as follows: Test Example 3 paddy field treatment, crop phytotoxicity. To be noted: Table 6, paddy field treatment, transplanted rice, active ingredient 1 kg per hectare, 21st day after dropping, index 0-5. The method, boiled down:
as §3

With `CNC(=O)C(Cn1cc(C)c(-c2cc(F)ccc2F)n1)=NOC` [Compound 57], the “Herbicidal activity CA: Chenopodium album” value (shortened to “Herbicidal activity CA”) was 5 (herbicidal effect of not less than 90%, or phytotoxicity of 90% or more) in the data set with Chenopodium album [1] and 5 (herbicidal effect of not less than 90%, or phytotoxicity of 90% or more) in the data set with Chenopodium album [7]. The “Herbicidal activity DA: Digitaria adscendens” value (from here on “Herbicidal activity DA”) is reported as 5 (herbicidal effect of not less than 90%, or phytotoxicity of 90% or more) in the data set with Digitaria adscendens [2] and 5 (herbicidal effect of not less than 90%, or phytotoxicity of 90% or more) with Digitaria adscendens [8]. The “Herbicidal activity SV: Setaria viridis” value with Setaria viridis [3] is on record as 5 (herbicidal effect of not less than 90%, or phytotoxicity of 90% or more); in the data set on Setaria viridis [9] it was 5 (herbicidal effect of not less than 90%, or phytotoxicity of 90% or more). Besides, the “Herbicidal activity SM: Stellaria media” value in the data set on Stellaria media [4] was 5 (herbicidal effect of not less than 90%, or phytotoxicity of 90% or more); in the data set on Stellaria media [10], 5 (herbicidal effect of not less than 90%, or phytotoxicity of 90% or more). For the same molecule, the “Herbicidal activity (phytotoxicity) GM: Soybean (Glycine max)” value (shortened to “Herbicidal activity (phytotoxicity) GM”) was 0 (herbicidal effect of not less than 0% and less than 10%, or phytotoxicity of 0% or more and less than 10%) with soybean (Glycine max) [5]; 0 (herbicidal effect of not less than 0% and less than 10%, or phytotoxicity of 0% or more and less than 10%) with soybean (Glycine max) [11]. Besides, the “Herbicidal activity (phytotoxicity) TA: Wheat (Triticum aestivum)” value (from here on “Herbicidal activity (phytotoxicity) TA”) in data set [6] is 0 (herbicidal effect of not less than 0% and less than 10%, or phytotoxicity of 0% or more and less than 10%); in data set [12] it was 0 (herbicidal effect of not less than 0% and less than 10%, or phytotoxicity of 0% or more and less than 10%). Further, in the data set with Ammannia multiflora, the “Herbicidal activity AM” value was 5 (herbicidal effect of not less than 90%, or phytotoxicity of 90% or more). The “Herbicidal activity EC” value in the data set with Echinochloa crusgalli is recorded as 5 (herbicidal effect of not less than 90%, or phytotoxicity of 90% or more). The “Herbicidal activity MV” value with Monochoria vaginalis is on record as 5 (herbicidal effect of not less than 90%, or phytotoxicity of 90% or more). Further, the “Herbicidal activity SJ” value in the data set with Scirpus juncoides is given as 5 (herbicidal effect of not less than 90%, or phytotoxicity of 90% or more). For the same molecule, the “Herbicidal activity (phytotoxicity) OS” value in the data set with Rice (Oryza sativa) is 0 (herbicidal effect of not less than 0% and less than 10%, or phytotoxicity of 0% or more and less than 10%).

For the molecule `CNC(=O)C(Cn1cc(C)c(-c2ccc(F)c(F)c2)n1)=NOC` [Compound 59], the “Herbicidal activity CA” value was 5 (herbicidal effect of not less than 90%, or phytotoxicity of 90% or more) in the data set on Chenopodium album [1] and 5 (herbicidal effect of not less than 90%, or phytotoxicity of 90% or more) in the data set on Chenopodium album [7]. For the same molecule, the “Herbicidal activity DA” value in the data set on Digitaria adscendens [2] is 5 (herbicidal effect of not less than 90%, or phytotoxicity of 90% or more); in the data set on Digitaria adscendens [8], 5 (herbicidal effect of not less than 90%, or phytotoxicity of 90% or more). For the same molecule, the “Herbicidal activity SV: Setaria viridis” value in the data set on Setaria viridis [3] is 5 (herbicidal effect of not less than 90%, or phytotoxicity of 90% or more); in the data set with Setaria viridis [9] it was 5 (herbicidal effect of not less than 90%, or phytotoxicity of 90% or more). Further, the “Herbicidal activity SM: Stellaria media” value in the data set with Stellaria media [4] was 5 (herbicidal effect of not less than 90%, or phytotoxicity of 90% or more); with Stellaria media [10], 5 (herbicidal effect of not less than 90%, or phytotoxicity of 90% or more). Further, the “Herbicidal activity (phytotoxicity) GM” value in the data set with soybean (Glycine max) [5] was 0 (herbicidal effect of not less than 0% and less than 10%, or phytotoxicity of 0% or more and less than 10%); with soybean (Glycine max) [11], 0 (herbicidal effect of not less than 0% and less than 10%, or phytotoxicity of 0% or more and less than 10%). The “Herbicidal activity (phytotoxicity) TA” value was 0 (herbicidal effect of not less than 0% and less than 10%, or phytotoxicity of 0% or more and less than 10%) in [6]; 0 (herbicidal effect of not less than 0% and less than 10%, or phytotoxicity of 0% or more and less than 10%) in data set [12]. In addition, the “Herbicidal activity AM” value in the data set on Ammannia multiflora is 5 (herbicidal effect of not less than 90%, or phytotoxicity of 90% or more). Further, the “Herbicidal activity EC” value in the data set on Echinochloa crusgalli was 5 (herbicidal effect of not less than 90%, or phytotoxicity of 90% or more). Also, the “Herbicidal activity MV” value in the data set on Monochoria vaginalis is reported as 5 (herbicidal effect of not less than 90%, or phytotoxicity of 90% or more). In addition, the “Herbicidal activity SJ” value in the data set on Scirpus juncoides was 5 (herbicidal effect of not less than 90%, or phytotoxicity of 90% or more). Besides, the “Herbicidal activity (phytotoxicity) OS” value with Rice (Oryza sativa) was 0 (herbicidal effect of not less than 0% and less than 10%, or phytotoxicity of 0% or more and less than 10%).

For the molecule `CNC(=O)C(Cn1cc(C)c(-c2ccc(OC(F)F)cc2)n1)=NOC` [Compound 65], the “Herbicidal activity CA” value with Chenopodium album [1] is given as 5 (herbicidal effect of not less than 90%, or phytotoxicity of 90% or more); in the data set on Chenopodium album [7], 5 (herbicidal effect of not less than 90%, or phytotoxicity of 90% or more). In addition, the “Herbicidal activity DA” value is 5 (herbicidal effect of not less than 90%, or phytotoxicity of 90% or more) in the data set on Digitaria adscendens [2] and 5 (herbicidal effect of not less than 90%, or phytotoxicity of 90% or more) in the data set on Digitaria adscendens [8]. For the same molecule, the “Herbicidal activity SV: Setaria viridis” value in the data set with Setaria viridis [3] is on record as 5 (herbicidal effect of not less than 90%, or phytotoxicity of 90% or more); with Setaria viridis [9], 5 (herbicidal effect of not less than 90%, or phytotoxicity of 90% or more). Besides, the “Herbicidal activity SM: Stellaria media” value is 5 (herbicidal effect of not less than 90%, or phytotoxicity of 90% or more) in the data set with Stellaria media [4] and 5 (herbicidal effect of not less than 90%, or phytotoxicity of 90% or more) in the data set with Stellaria media [10]. The “Herbicidal activity (phytotoxicity) GM” value with soybean (Glycine max) [5] was 0 (herbicidal effect of not less than 0% and less than 10%, or phytotoxicity of 0% or more and less than 10%); in the data set on soybean (Glycine max) [11] it was 0 (herbicidal effect of not less than 0% and less than 10%, or phytotoxicity of 0% or more and less than 10%). The “Herbicidal activity (phytotoxicity) TA” value in data set [6] is 0 (herbicidal effect of not less than 0% and less than 10%, or phytotoxicity of 0% or more and less than 10%); in data set [12] it was 0 (herbicidal effect of not less than 0% and less than 10%, or phytotoxicity of 0% or more and less than 10%). For the same molecule, the “Herbicidal activity AM” value with Ammannia multiflora is given as 5 (herbicidal effect of not less than 90%, or phytotoxicity of 90% or more). Besides, the “Herbicidal activity EC” value with Echinochloa crusgalli is 5 (herbicidal effect of not less than 90%, or phytotoxicity of 90% or more). Moreover, in the data set on Monochoria vaginalis, the “Herbicidal activity MV” value is on record as 5 (herbicidal effect of not less than 90%, or phytotoxicity of 90% or more). The “Herbicidal activity SJ” value in the data set with Scirpus juncoides is listed as 5 (herbicidal effect of not less than 90%, or phytotoxicity of 90% or more). Moreover, the “Herbicidal activity (phytotoxicity) OS” value in the data set with Rice (Oryza sativa) was 0 (herbicidal effect of not less than 0% and less than 10%, or phytotoxicity of 0% or more and less than 10%).

Source of the values: patent publication US7192906B2, “Substituted pyrazole derivatives, production process thereof, and herbicide compositions containing the derivatives” (SDS Biotech K.K., priority 2001, dated 2007).
